Source: patent US20220296599A1, “Pharmaceutical composition comprising histone deacetylase inhibitor and methotrexate” (Chong Kun Dang Pharmaceutical Corp., priority 2018, published 2022)

Assays:
[1] = Pharmacokinetic analysis, plasma concentration by LC/MS; format: in vivo; settings: rats, MTX 1 mg/kg only
Method: A bioequivalence was evaluated through a pharmacokinetic test on administration of the inventive compound 374 (SM374) and MTX in combination as well as administration of MTX only.
Particularly, after administration of compound 374 (SM374) and MTX, plasma was isolated from blood collected from rats for each time slot, after which organic solvent was added into such plasma to carry out deproteinization and extraction, such that a resulting sample was subjected to quantitative analysis by means of liquid chromatography and mass spectrometer (LC/MS) along with a calibration sample treated under the same conditions, to measure a concentration of compound 374 (SM374) and MTX (FIG. 6 and Table 21) in plasma of the rats as well as each PK parameter (Table 22).

[2] = system: adjuvant-induced arthritis (AIA) model; experiment: Clinical score analysis in adjuvant-induced arthritis (AIA) model; format: in vivo, Lewis rats; set-up: Clinical score 9th day / Clinical score 13th day / Clinical score 16th day / Clinical score 11th day / Clinical score 15th day / Clinical score 18th day: scale not given here; settings: for Clinical score 9th day / Clinical score 13th day / Clinical score 16th day: Mean ± SD; for Clinical score 11th day / Clinical score 15th day / Clinical score 18th day: Mean ± SEM
Method: (§1) Lewis rats (female, five-weeks old) were purchased from Central Lab Animal, Inc. and kept in a controlled environment with a temperature at 22±2° C., a humidity at 44-56% and a light/dark cycle of 12 hours, while being allowed to have a free access to standard diet and water for one week before an examination. Complete Freund's Adjuvant (Chondrex) containing 10 mg/mL of heat killed mycobacteria toxin was fully mixed together, after which […] thereof was taken and subcutaneously injected into each upper tail of the rats to induce arthritis therefrom.
(§2) To administer a drug of compound 374 (SM374) and evaluate an effect thereof, the rats were divided into 11 groups (9, 10 or 11 animals per group) one day before or nine days after inducing arthritis, after which each group was classified according to administered substances (vehicle, compound 374 (SM374) or methotrexate (MTX)) and administration routes (oral administration (P.O.) or intraperitoneal administration (I.P.)) as shown in a following table 13.
(§3) Also, in order to administer a drug of compounds 374, 413, 484, 530 and 652 (SM374, SM413, SM484, SM530 and SM652) and evaluate an effect thereof, the rats were divided into 13 groups (9 or 10 animals per group) eight days after inducing arthritis, and each group was classified according to administered substances (vehicle, SM374, SM413, SM484, SM530, SM652 and MTX) and administration routes (oral or intraperitoneal administration) as shown in a following table 14.
To identify the efficacy of the inventive composition on preventing or treating arthritis in an AIA model, an analysis was made on the clinical scores of rats dosed with a compound 374 (SM 374, once per day) or MTX (once per week or twice per week) from 9th day to 16th day after inducing arthritis.
Particularly, a degree of swelling, erythema, etc., in each joint of the rats were observed, after which clinical scores were calculated according to a scoring system described in a following table 15, such that the clinical scores on four joints were added up to obtain total scores for each rat (Vishwakarma et al., 2013).
To identify the efficacy of the inventive composition on preventing or treating arthritis in an AIA model, an analysis was made on the clinical scores of rats dosed with compounds 374, 413, 484, 530 and 652 (SM374, SM413, SM484, SM530 and SM652, once per day) or MIX (once per week) from 8th day to 18th day after inducing arthritis.

[3] = Analysis of body weights in AIA model; format: in vivo, Lewis rats; settings: for Body weight (g) 9th day / Body weight (g) 13th day / Body weight (g) 16th day: Mean ± SD; for Body weight (g) 8th day / Body weight (g) 11th day / Body weight (g) 15th day / Body weight (g) 18th day: Table 19 study
Method: as §1, §2, §3
An analysis was made on the body weight of rats dosed with compound 374 (SM 374, once per day) or MIX (once per week or twice per week) from 9th day to 16th day after inducing AIA. […]

[4] = system: anti-CCP IgG; experiment: Analysis of anti-CCP IgG in plasma in AIA model (QUANTA Lite CCP3 IgG ELISA); format: in vivo, Lewis rats; settings: Mean ± SD
Method: as §1, §2
An effect of compound 374 (SM374) and MTX on preventing or treating arthritis according to administration thereof in combination was evaluated based on analysis of anti-CCP IgG, known as a diagnosis marker for rheumatoid arthritis.
Particularly, blood was collected from each jugular vein of rats dosed with compound 374 (SM374, once per day) and MTX (once or twice per week) from 9th day to 16th day after inducing AIA, after which plasma was isolated therefrom, such that anti-CCP IgG was measured with QUANTA Lite®CCP3 (cyclic citrullinated peptide 3) IgG ELISA kit (INOVA Diagnostics Inc., U.S., catalog no. 704535) according to a protocol offered by a manufacturer thereof, wherein the results thereof are shown in FIG. 5 and Table 20.

[5] = MTX 3 mg/kg twice per week I.P.
[6] = Table 17 study, MTX 1 mg/kg once per week I.P.
[7] = Table 17 study, MTX 3 mg/kg once per week I.P.
[8] = SM374 0.1 mg/kg once per day P.O.
[9] = SM374 0.5 mg/kg once per day P.O.
[10] = SM374 1 mg/kg once per day P.O.
[11] = SM374 10 mg/kg once per day P.O.
[12] = Table 17 study, compound 10 mg/kg once per day P.O., 18th day vs vehicle
[13] = Table 17 study, compound 10 mg/kg once per day P.O.
[14] = compound 10 mg/kg once per day P.O.

CN(Cc1cnc2nc(N)nc(N)c2n1)c1ccc(C(=O)N[C@@H](CCC(=O)O)C(=O)O)cc1 [MTX, Methotrexate]
AUC(0-inf) ([1]; rat, plasma): 1510 ± 231 ng·h/mL
Cmax ([1]; rat, plasma): 1300 ± 97.3 ng/mL
Tmax ([1]; rat, plasma): 30 min
half-life ([1]; rat, plasma): 54 min
AUC(0-t) ([1]; rat, plasma, read-out: AUC0→8h): 1500 ± 231 ng·h/mL
concentration at 0.5 hr ([1]; rat, plasma, time 0.5 hr): 1300 ± 97.3 ng/mL
concentration at 1 hr ([1]; rat, plasma, time 1 hr): 747 ± 129 ng/mL
concentration at 2 hr ([1]; rat, plasma, time 2 hr): 245 ± 108 ng/mL
concentration at 4 hr ([1]; rat, plasma, time 4 hr): 24.4 ± 9.7 ng/mL
concentration at 8 hr ([1]; rat, plasma, time 8 hr): 3 ± 0.3 ng/mL
Plasma concentration (ng/mL) ([1]; time 0 hr): BLOQ
Rate of reduction in clinical scores (%) ([2]; MTX 1 mg/kg once per week I.P., 16th day vs vehicle): 14.5%
Clinical score 9th day ([2]; MTX 1 mg/kg once per week I.P.): 0.0 ± 0.0
Clinical score 13th day ([2]; MTX 1 mg/kg once per week I.P.): 2.2 ± 1.2
Clinical score 16th day ([2]; MTX 1 mg/kg once per week I.P.): 5.9 ± 2.8
Rate of reduction in clinical scores (%) ([2]; MTX 3 mg/kg twice per week I.P., 16th day vs vehicle): 65.2%
Clinical score 9th day [2, 5]: 0.0 ± 0.0
Clinical score 13th day [2, 5]: 1.1 ± 1.6
Clinical score 16th day [2, 5]: 2.4 ± 3.0
Rate of reduction in clinical scores (%) ([2]; Table 17 study, MTX 1 mg/kg once per week I.P., 18th day vs vehicle): 23.0%
Clinical score 11th day [2, 6]: 0.0 ± 0.0
Clinical score 15th day [2, 6]: 1.3 ± 0.9
Clinical score 18th day [2, 6]: 4.7 ± 1.9
Rate of reduction in clinical scores (%) ([2]; Table 17 study, MTX 3 mg/kg once per week I.P., 18th day vs vehicle): 96.7%
Clinical score 11th day [2, 7]: 0.0 ± 0.0
Clinical score 15th day [2, 7]: 0.0 ± 0.0
Clinical score 18th day [2, 7]: 0.2 ± 0.2 #
Body weight (g) 9th day ([3]; MTX 1 mg/kg once per week I.P.): 157.3 ± 11.9 g
Body weight (g) 13th day ([3]; MTX 1 mg/kg once per week I.P.): 160.6 ± 4.2 g
Body weight (g) 16th day ([3]; MTX 1 mg/kg once per week I.P.): 153.8 ± 7.9 g
Body weight (g) 9th day [3, 5]: 157.2 ± 7.3 g
Body weight (g) 13th day [3, 5]: 159.6 ± 5.7 g
Body weight (g) 16th day [3, 5]: 157.6 ± 5.7 g
Body weight (g) 8th day ([3]; MTX 1 mg/kg once per week I.P.): 151.2 ± 2.4 g
Body weight (g) 11th day ([3]; MTX 1 mg/kg once per week I.P.): 152.1 ± 2.3 g
Body weight (g) 15th day ([3]; MTX 1 mg/kg once per week I.P.): 156.9 ± 2.8 g
Body weight (g) 18th day ([3]; MTX 1 mg/kg once per week I.P.): 155.0 ± 3.9 g
Body weight (g) 8th day ([3]; MTX 3 mg/kg once per week I.P.): 151.2 ± 2.4 g
Body weight (g) 11th day ([3]; MTX 3 mg/kg once per week I.P.): 151.6 ± 3.8 g
Body weight (g) 15th day ([3]; MTX 3 mg/kg once per week I.P.): 160.0 ± 2.9 g
Body weight (g) 18th day ([3]; MTX 3 mg/kg once per week I.P.): 164.7 ± 2.5 g
Anti-CCP IgG (RU) ([4]; MTX 1 mg/kg): 208.0 ± 24.3 RU
Anti-CCP IgG (RU) ([4]; MTX 3 mg/kg): 104.6 ± 56.7 RU

O=C(NO)c1ccc(CN(C(=O)N2CCOCC2)c2cccc(C(F)(F)F)c2)cc1 [SM374, N-(4-(hydroxycarbamoyl)benzyl)-N-(3-(trifluoromethyl)phenyl)morpholine-4-carboxamide]
Rate of reduction in clinical scores (%) ([2]; SM374 0.1 mg/kg once per day P.O., 16th day vs vehicle): 0%
Clinical score 9th day [2, 8]: 0.0 ± 0.0
Clinical score 13th day [2, 8]: 4.3 ± 2.9
Clinical score 16th day [2, 8]: 6.9 ± 3.0
Rate of reduction in clinical scores (%) ([2]; SM374 0.5 mg/kg once per day P.O., 16th day vs vehicle): 2.9%
Clinical score 9th day [2, 9]: 0.0 ± 0.0
Clinical score 13th day [2, 9]: 2.6 ± 2.3
Clinical score 16th day [2, 9]: 6.7 ± 4.2
Rate of reduction in clinical scores (%) ([2]; SM374 1 mg/kg once per day P.O., 16th day vs vehicle): 14.5%
Clinical score 9th day [2, 10]: 0.0 ± 0.0
Clinical score 13th day [2, 10]: 2.7 ± 3.0
Clinical score 16th day [2, 10]: 5.9 ± 4.4
Rate of reduction in clinical scores (%) ([2]; SM374 10 mg/kg once per day P.O., 16th day vs vehicle): −2.9%
Clinical score 9th day [2, 11]: 0.0 ± 0.0
Clinical score 13th day [2, 11]: 2.9 ± 2.9
Clinical score 16th day [2, 11]: 7.1 ± 3.1
Rate of reduction in clinical scores (%) [2, 12]: 21.3%
Clinical score 11th day [2, 13]: 0.0 ± 0.0
Clinical score 15th day [2, 13]: 1.6 ± 0.7
Clinical score 18th day [2, 13]: 4.8 ± 1.4
Body weight (g) 9th day [3, 8]: 157.3 ± 10.1 g
Body weight (g) 13th day [3, 8]: 151.3 ± 13.3 g
Body weight (g) 16th day [3, 8]: 144.2 ± 10.5 g
Body weight (g) 9th day [3, 9]: 157.3 ± 10.0 g
Body weight (g) 13th day [3, 9]: 153.1 ± 10.8 g
Body weight (g) 16th day [3, 9]: 148.6 ± 9.5 g
Body weight (g) 9th day [3, 10]: 157.3 ± 10.7 g
Body weight (g) 13th day [3, 10]: 156.9 ± 8.9 g
Body weight (g) 16th day [3, 10]: 151.6 ± 11.5 g
Body weight (g) 9th day [3, 11]: 157.3 ± 9.9 g
Body weight (g) 13th day [3, 11]: 151.6 ± 12.2 g
Body weight (g) 16th day [3, 11]: 147.6 ± 9.3 g
Body weight (g) 8th day [3, 14]: 151.3 ± 2.1 g
Body weight (g) 11th day [3, 14]: 153.9 ± 1.5 g
Body weight (g) 15th day [3, 14]: 159.2 ± 1.5 g
Body weight (g) 18th day [3, 14]: 157.6 ± 3.1 g
Anti-CCP IgG (RU) ([4]; SM374 0.5 mg/kg once per day): 216.2 ± 30.0 RU
Anti-CCP IgG (RU) ([4]; SM374 1 mg/kg once per day): 221.8 ± 28.0 RU
Anti-CCP IgG (RU) ([4]; SM374 10 mg/kg once per day): 206.6 ± 32.9 RU

O=C(NO)c1ccc(CN(C(=O)N2CCOCC2)c2ccc(F)cc2F)cc1 [SM413, N-(2,4-difluorophenyl)-N-(4-(hydroxycarbamoyl)benzyl)morpholine-4-carboxamide]
Rate of reduction in clinical scores (%) [2, 12]: −3.3%
Clinical score 11th day [2, 13]: 0.0 ± 0.0
Clinical score 15th day [2, 13]: 3.0 ± 1.4
Clinical score 18th day [2, 13]: 6.3 ± 1.4
Body weight (g) 8th day [3, 14]: 151.3 ± 2.9 g
Body weight (g) 11th day [3, 14]: 151.4 ± 3.9 g
Body weight (g) 15th day [3, 14]: 157.4 ± 4.2 g
Body weight (g) 18th day [3, 14]: 155.2 ± 4.5 g
